# Source: paper PMC10408569, “Recruitment of hexahydroquinoline as anticancer scaffold targeting inhibition of wild and mutants EGFR (EGFR^WT, EGFR^T790M, and EGFR^L858R)” (Journal of Enzyme Inhibition and Medicinal Chemistry, 2023)
# Columns and labels:
# Experiment in all cases: NCI-60 anticancer screening (SRB)
# Type in all cases: cell-based
# CCRF-CEM = conditions: Homo sapiens; for inhibition at 10 µM: leukemia, one dose 10 μM, read-out: Growth Inhibition Percentage (GI %)
# HL-60(TB) = conditions: Homo sapiens; for inhibition at 10 µM: leukemia, one dose 10 μM, read-out: Growth Inhibition Percentage (GI %)
# K-562 = conditions: Homo sapiens, K562; for inhibition at 10 µM: K-562, leukemia, one dose 10 μM, read-out: Growth Inhibition Percentage (GI %)
# MOLT-4 = conditions: Homo sapiens; for inhibition at 10 µM: MOLT-4, leukemia, one dose 10 μM, read-out: Growth Inhibition Percentage (GI %)
# EKVX = conditions: Homo sapiens; for inhibition at 10 µM: NSC lung cancer, one dose 10 μM, read-out: Growth Inhibition Percentage (GI %)
# HOP-92 = conditions: Homo sapiens; for inhibition at 10 µM: HOP-92, NSC lung cancer, one dose 10 μM, read-out: Growth Inhibition Percentage (GI %)
# NCI-H226 = conditions: Homo sapiens; for inhibition at 10 µM: NCI-H226, NSC lung cancer, one dose 10 μM, read-out: Growth Inhibition Percentage (GI %)
# NCI-H522 = conditions: Homo sapiens; for inhibition at 10 µM: NCI-H522, NSC lung cancer, one dose 10 μM, read-out: Growth Inhibition Percentage (GI %)
# COLO 205 = conditions: Homo sapiens; for inhibition at 10 µM: COLO 205, colon cancer, one dose 10 μM, read-out: Growth Inhibition Percentage (GI %)
# SF-268 = conditions: Homo sapiens; for inhibition at 10 µM: SF-268, CNS cancer, one dose 10 μM, read-out: Growth Inhibition Percentage (GI %)
# SF-295 = conditions: Homo sapiens; for inhibition at 10 µM: SF-295, CNS cancer, one dose 10 μM, read-out: Growth Inhibition Percentage (GI %)
# SNB-75 = conditions: Homo sapiens; for inhibition at 10 µM: SNB-75, CNS cancer, one dose 10 μM, read-out: Growth Inhibition Percentage (GI %)
# U251 = conditions: Homo sapiens, U-251; for inhibition at 10 µM: U251, CNS cancer, one dose 10 μM, read-out: Growth Inhibition Percentage (GI %)
# LOX IMVI = conditions: Homo sapiens; for inhibition at 10 µM: melanoma, one dose 10 μM, read-out: Growth Inhibition Percentage (GI %)
# MALME-3M = conditions: Homo sapiens; for inhibition at 10 µM: melanoma, one dose 10 μM, read-out: Growth Inhibition Percentage (GI %)
# M14 = conditions: Homo sapiens; for inhibition at 10 µM: M14, melanoma, one dose 10 μM, read-out: Growth Inhibition Percentage (GI %)
# SK-MEL-2 = conditions: Homo sapiens; for inhibition at 10 µM: SK-MEL-2, melanoma, one dose 10 μM, read-out: Growth Inhibition Percentage (GI %)
# SK-MEL-28 = conditions: Homo sapiens; for inhibition at 10 µM: SK-MEL-28, melanoma, one dose 10 μM, read-out: Growth Inhibition Percentage (GI %)
# UACC-62 = conditions: Homo sapiens; for inhibition at 10 µM: UACC-62, melanoma, one dose 10 μM, read-out: Growth Inhibition Percentage (GI %)
# OVCAR-3 = conditions: Homo sapiens; for inhibition at 10 µM: OVCAR-3, ovarian cancer, one dose 10 μM, read-out: Growth Inhibition Percentage (GI %)
# OVCAR-4 = conditions: Homo sapiens; for inhibition at 10 µM: OVCAR-4, ovarian cancer, one dose 10 μM, read-out: Growth Inhibition Percentage (GI %)
# OVCAR-8 = conditions: Homo sapiens; for inhibition at 10 µM: OVCAR-8, ovarian cancer, one dose 10 μM, read-out: Growth Inhibition Percentage (GI %)
# NCI/ADR-RES = conditions: Homo sapiens, ovarian cancer, one dose 10 μM, read-out: Growth Inhibition Percentage (GI %)
# 786-0 = conditions: Homo sapiens; for inhibition at 10 µM: 786-0, renal cancer, one dose 10 μM, read-out: Growth Inhibition Percentage (GI %)
# A498 = conditions: Homo sapiens; for inhibition at 10 µM: A498, renal cancer, one dose 10 μM, read-out: Growth Inhibition Percentage (GI %)
# CAKI-1 = conditions: Homo sapiens; for inhibition at 10 µM: CAKI-1, renal cancer, one dose 10 μM, read-out: Growth Inhibition Percentage (GI %)
# TK-10 = conditions: Homo sapiens; for inhibition at 10 µM: TK-10, renal cancer, one dose 10 μM, read-out: Growth Inhibition Percentage (GI %)
# UO-31 = conditions: Homo sapiens; for inhibition at 10 µM: UO-31, renal cancer, one dose 10 μM, read-out: Growth Inhibition Percentage (GI %)
# DU-145 = conditions: Homo sapiens; for inhibition at 10 µM: DU-145, prostate cancer, one dose 10 μM, read-out: Growth Inhibition Percentage (GI %)
# MCF7 = conditions: Homo sapiens; for inhibition at 10 µM: MCF7, breast cancer, one dose 10 μM, read-out: Growth Inhibition Percentage (GI %)
# HS 578T = conditions: Homo sapiens; for inhibition at 10 µM: HS 578T, breast cancer, one dose 10 μM, read-out: Growth Inhibition Percentage (GI %)
# BT-549 = conditions: Homo sapiens; for inhibition at 10 µM: BT-549, breast cancer, one dose 10 μM, read-out: Growth Inhibition Percentage (GI %)
# MDA-MB-468 = conditions: Homo sapiens; for inhibition at 10 µM: MDA-MB-468, breast cancer, one dose 10 μM, read-out: Growth Inhibition Percentage (GI %)
structure (smiles),measurement,setting,value
"CCOC(=O)C1=C(N)N(c2ccccc2)C2=C(C(=O)CC(C)(C)C2)C1c1ccc(Cl)cc1Cl (racemic) [10c, (±)-Ethyl 2-amino-4–(2,4-dichlorophenyl)-7,7-dimethyl-5-oxo-1-phenyl-1,4,5,6,7,8-hexahydroquinoline-3-carboxylate]",GI50,"CCRF-CEM; five doses 0.01-100 µM, 48 h",3.1 µM
same,inhibition at 10 µM,CCRF-CEM,80%
same,GI50,"HL-60(TB); five doses 0.01-100 µM, 48 h",5.95 µM
same,inhibition at 10 µM,HL-60(TB),99%
same,inhibition at 10 µM,K-562,87%
same,GI50,"K-562; K-562, five doses 0.01-100 µM, 48 h",7.23 µM
same,inhibition at 10 µM,MOLT-4,93%
same,GI50,"MOLT-4; MOLT-4, five doses 0.01-100 µM, 48 h",9.56 µM
same,inhibition at 10 µM,EKVX,81%
same,GI50,"EKVX; five doses 0.01-100 µM, 48 h",2.62 µM
same,inhibition at 10 µM,HOP-92,100%
same,GI50,"HOP-92; HOP-92, five doses 0.01-100 µM, 48 h",3.89 µM
same,inhibition at 10 µM,NCI-H226,76%
same,GI50,"NCI-H226; NCI-H226, five doses 0.01-100 µM, 48 h",2.34 µM
same,inhibition at 10 µM,NCI-H522,65%
same,GI50,"NCI-H522; NCI-H522, five doses 0.01-100 µM, 48 h",2.22 µM
same,inhibition at 10 µM,COLO 205,91%
same,GI50,"COLO 205; COLO-205, five doses 0.01-100 µM, 48 h",2.06 µM
same,inhibition at 10 µM,SF-268,48%
same,GI50,"SF-268; SF-268, five doses 0.01-100 µM, 48 h",5.32 µM
same,inhibition at 10 µM,SF-295,76%
same,GI50,"SF-295; SF-295, five doses 0.01-100 µM, 48 h",2.03 µM
same,inhibition at 10 µM,SNB-75,59%
same,GI50,"SNB-75; SNB-75, five doses 0.01-100 µM, 48 h",5.33 µM
same,inhibition at 10 µM,U251,72%
same,GI50,"U251; U251, five doses 0.01-100 µM, 48 h",2.46 µM
same,GI50,"LOX IMVI; five doses 0.01-100 µM, 48 h",3.24 µM
same,inhibition at 10 µM,LOX IMVI,< 10%
same,GI50,"MALME-3M; five doses 0.01-100 µM, 48 h",2.93 µM
same,inhibition at 10 µM,MALME-3M,72%
same,inhibition at 10 µM,M14,59%
same,GI50,"M14; M14, five doses 0.01-100 µM, 48 h",3.48 µM
same,inhibition at 10 µM,SK-MEL-2,112%
same,GI50,"SK-MEL-2; SK-MEL-2, five doses 0.01-100 µM, 48 h",1.7 µM
same,inhibition at 10 µM,SK-MEL-28,49%
same,GI50,"SK-MEL-28; SK-MEL-28, five doses 0.01-100 µM, 48 h",6.67 µM
same,inhibition at 10 µM,UACC-62,73%
same,GI50,"UACC-62; UACC-62, five doses 0.01-100 µM, 48 h",1.26 µM
same,inhibition at 10 µM,OVCAR-3,67%
same,GI50,"OVCAR-3; OVCAR-3, five doses 0.01-100 µM, 48 h",2.62 µM
same,inhibition at 10 µM,OVCAR-4,75%
same,GI50,"OVCAR-4; OVCAR-4, five doses 0.01-100 µM, 48 h",2.83 µM
same,inhibition at 10 µM,OVCAR-8,63%
same,GI50,"OVCAR-8; OVCAR-8, five doses 0.01-100 µM, 48 h",3.72 µM
same,inhibition at 10 µM,NCI/ADR-RES,76%
same,inhibition at 10 µM,786-0,66%
same,GI50,"786-0; 786-0, five doses 0.01-100 µM, 48 h",4.24 µM
same,inhibition at 10 µM,A498,53%
same,GI50,"A498; A498, five doses 0.01-100 µM, 48 h",4.54 µM
same,inhibition at 10 µM,CAKI-1,77%
same,GI50,"CAKI-1; CAKI-1, five doses 0.01-100 µM, 48 h",6.82 µM
same,inhibition at 10 µM,TK-10,63%
same,GI50,"TK-10; TK-10, five doses 0.01-100 µM, 48 h",5.63 µM
same,inhibition at 10 µM,UO-31,83%
same,GI50,"UO-31; UO-31, five doses 0.01-100 µM, 48 h",1.15 µM
same,inhibition at 10 µM,DU-145,54%
same,GI50,"DU-145; DU-145, five doses 0.01-100 µM, 48 h",6.71 µM
same,inhibition at 10 µM,MCF7,91%
same,GI50,"MCF7; MCF7, five doses 0.01-100 µM, 48 h",1.77 µM
same,inhibition at 10 µM,HS 578T,< 10%
same,GI50,"HS 578T; HS 578 T, five doses 0.01-100 µM, 48 h",7.68 µM
same,inhibition at 10 µM,BT-549,67%
same,GI50,"BT-549; BT-549, five doses 0.01-100 µM, 48 h",4.58 µM
same,inhibition at 10 µM,MDA-MB-468,96%
same,GI50,"MDA-MB-468; MDA-MB-468, five doses 0.01-100 µM, 48 h",6.83 µM
"CCOC(=O)C1=C(N)N(c2ccc(Cl)cc2)C2=C(C(=O)CC(C)(C)C2)C1c1ccc(Cl)cc1Cl (racemic) [10d, (±)-Ethyl 2-amino-1–(4-chorophenyl)-4–(2,4-dichlorophenyl)-7,7-dimethyl-5-oxo-1-phenyl-1,4,5,6,7,8-hexahydroquinoline-3-carboxylate]",inhibition at 10 µM,CCRF-CEM,64%
same,inhibition at 10 µM,HL-60(TB),79%
same,inhibition at 10 µM,K-562,79%
same,inhibition at 10 µM,MOLT-4,71%
same,inhibition at 10 µM,EKVX,71%
same,inhibition at 10 µM,HOP-92,55%
same,inhibition at 10 µM,NCI-H226,62%
same,inhibition at 10 µM,NCI-H522,51%
same,inhibition at 10 µM,COLO 205,53%
same,inhibition at 10 µM,SF-268,27%
same,inhibition at 10 µM,SF-295,48%
same,inhibition at 10 µM,SNB-75,11%
same,inhibition at 10 µM,U251,58%
same,inhibition at 10 µM,LOX IMVI,< 10%
same,inhibition at 10 µM,MALME-3M,32%
same,inhibition at 10 µM,M14,30%
same,inhibition at 10 µM,SK-MEL-2,37%
same,inhibition at 10 µM,SK-MEL-28,30%
same,inhibition at 10 µM,UACC-62,45%
same,inhibition at 10 µM,OVCAR-3,49%
same,inhibition at 10 µM,OVCAR-4,56%
same,inhibition at 10 µM,OVCAR-8,29%
same,inhibition at 10 µM,NCI/ADR-RES,47%
same,inhibition at 10 µM,786-0,31%
same,inhibition at 10 µM,A498,23%
same,inhibition at 10 µM,CAKI-1,54%
same,inhibition at 10 µM,TK-10,30%
same,inhibition at 10 µM,UO-31,65%
same,inhibition at 10 µM,DU-145,23%
same,inhibition at 10 µM,MCF7,70%
same,inhibition at 10 µM,HS 578T,< 10%
same,inhibition at 10 µM,BT-549,24%
same,inhibition at 10 µM,MDA-MB-468,82%
